Test results as given in the PolyMetriX glass transition set.
± gives the standard deviation of the reports.

| glass transition temperature | Compound |
| --- | --- |
| 62.00 °C | *Oc1ccc(CC(NC(=O)CCc2ccc(OC(=O)CCCC(*)=O)cc2)C(=O)OCC(C)C)cc1 (repeat unit) |
| 199.00 °C | *c1ccc(Sc2ccc(Oc3ccc(Sc4ccc(N5C(=O)c6ccc(Oc7ccc(C(C)(C)c8ccc(Oc9ccc%10c(c9)C(=O)N(*)C%10=O)cc8)cc7)cc6C5=O)cc4)cc3)cc2)cc1 (repeat unit) |
| 121.00 °C | *OC(=O)C1CCC(C(=O)OC2COC3C(*)COC23)CC1 (repeat unit) |
| 161.00 °C | *Oc1ccc(-c2ccc(OC3(F)C(*)(F)C(F)(F)C3(F)F)cc2)cc1 (repeat unit) |
| 283.50 °C | *c1ccc(Oc2ccc(N3C(=O)c4ccc(S(=O)(=O)c5ccc6c(c5)C(=O)N(*)C6=O)cc4C3=O)cc2)cc1 (repeat unit) |
| 30.00 °C | *CC(O)COC(=O)CCCCCCCCC(=O)OCC(O)COc1ccc(/C=C(\C)c2ccc(O*)cc2)cc1 (repeat unit) |
| 90.00 °C | *CCCCCCCCCCOc1ccc(N(c2ccccc2)c2ccc(-c3ccc(N(c4ccccc4)c4ccc(O*)cc4)cc3)cc2)cc1 (repeat unit) |
| 125.00 °C | *C(=O)Oc1ccc(OCCCCCCCCCCCCOc2ccc(OC(=O)c3ccc4c(c3)C(=O)N(c3ccc(Cc5ccc(N6C(=O)c7ccc(*)cc7C6=O)cc5)cc3)C4=O)cc2)cc1 (repeat unit) |
| 256.50 °C | *C(=O)c1cc(C(=O)c2ccc3c(c2)C(=O)N(c2ccc(Oc4ccc(S(=O)(=O)c5ccc(Oc6ccc(N7C(=O)c8ccc(*)cc8C7=O)cc6)cc5)cc4)cc2)C3=O)cc(-c2ccccc2)c1 (repeat unit) |
| 72.00 °C | *OC(CCl)COC(=O)C1=C(C(=O)OCC(CCl)OC(=O)c2ccc(C(*)=O)cc2)C2C=CC1C2 (repeat unit) |
| 137.50 °C | *Oc1ccc(C2(c3ccc(OC(*)=O)c(C)c3)CCCCC2)cc1C (repeat unit) |
| -7.00 °C | *CCCCCCOC(=O)CCCCCNC(=O)CCCCC(=O)NCCCCCC(=O)O* (repeat unit) |
| 69.00 °C | *Sc1cccc(Sc2ccc(Sc3ccc(*)cc3)cc2)c1 (repeat unit) |
| 35.00 °C | *Oc1ccc(CC(NC(=O)CCc2ccc(OC(=O)CC(C)CCC(*)=O)cc2)C(=O)OCCCC)cc1 (repeat unit) |
| 220.00 °C | *c1ccc(Oc2ccc(-c3ccc(Oc4ccc(N5C(=O)c6ccc(Oc7ccc(C(C)(C)c8ccc(Oc9ccc%10c(c9)C(=O)N(*)C%10=O)cc8)cc7)cc6C5=O)cc4)cc3)cc2)cc1 (repeat unit) |
| 60.00 °C | *CCCCCCCCOC(=O)c1ccc2cc(C(=O)O*)ccc2c1 (repeat unit) |
| 89.00 °C | *c1cc(CCCCCC)c(-c2ccc3c4ccc(-c5sc(-c6sc(*)c7nc(CC)c(CC)nc67)cc5CCCCCC)cc4n(CCCCCCCCCCCC)c3c2)s1 (repeat unit) |
| 214.00 °C | *Oc1ccc(C2(c3ccc(Oc4ccc(C(=O)c5ccc(*)cc5)cc4)cc3)CCC3CCCCC3C2)cc1 (repeat unit) |
| 44.00 °C | *CC(CCCCCCOc1ccc(/N=N/c2ccc(C(F)(F)F)cc2)cc1)COC(=O)CCCCC(=O)O* (repeat unit) |
| 47.00 °C | *Cc1ccc(COC(=O)Cc2ccc(C(=O)O*)cc2)cc1 (repeat unit) |
| 78.50 °C | *OC(=O)OCC(O)C(O)COC(=O)OC1COC2C(*)COC12 (repeat unit) |
| 194.00 °C | *Oc1ccc(C2(c3ccc(Oc4ccc(C(=O)c5cccc(C(=O)c6ccc(*)cc6)c5)cc4)cc3)CCC3CCCCC3C2)cc1 (repeat unit) |
| 268.00 °C | *Nc1cccc(C#Cc2ccc(NC(=O)c3cccc(C(*)=O)c3)cc2)c1 (repeat unit) |
| 60.00 °C | *OC(=O)/C=C/C(=O)OC1COC2C(*)COC12 (repeat unit) |
| 152.00 °C | *Oc1ccc(C(C)(C)c2ccc(OC(=O)CN(CC(*)=O)c3ccc(/N=N/c4ccc([N+](=O)[O-])cc4)cc3)cc2)cc1 (repeat unit) |

| glass transition temperature | Compound |
| --- | --- |
| -2.00 °C | *CC(*)(C)C(=O)OCc1ccc(OCCOCC)c(OCCOCC)c1 (repeat unit) |
| 230.80 °C | *Oc1ccc(S(=O)(=O)c2ccc(Oc3c(C)cc(C(c4cc(C)c(*)c(C)c4)(C(F)(F)F)C(F)(F)F)cc3C)c(Br)c2)cc1Br (repeat unit) |
| 372.00 °C | *c1ccc(-c2ccc(N3C(=O)c4ccc(-c5cccc6c5C(=O)N(*)C6=O)cc4C3=O)cc2C)c(C)c1 (repeat unit) |
| 297.00 °C | *c1ccc(Oc2ccc3ccccc3c2-c2c(Oc3ccc(N4C(=O)c5ccc(NC(=O)Nc6cccc7c(NC(=O)Nc8ccc9c(c8)C(=O)N(*)C9=O)cccc67)cc5C4=O)cc3)ccc3ccccc23)cc1 (repeat unit) |
| 75.00 °C | *CCN(*)C(=O)Cc1ccc(C(F)(F)F)cc1 (repeat unit) |
| 324.00 °C | *c1ccc2c(c1)C(=O)N(c1cccc(C(=O)Nc3ccc(-c4ccc(NC(=O)c5cccc(N6C(=O)c7ccc(C(*)(C(F)(F)F)C(F)(F)F)cc7C6=O)c5)cc4)cc3)c1)C2=O (repeat unit) |
| 40.30 °C | *CCCCCCOC(=O)NC1CCC(CC2CCC(NC(=O)OCCCCCCOc3ccc(CCc4ccc(O*)cc4)cc3)CC2)CC1 (repeat unit) |
| 135.00 °C | *CCCCCCCCCN1C(=O)c2ccc(C(c3ccc4c(c3)C(=O)N(*)C4=O)(C(F)(F)F)C(F)(F)F)cc2C1=O (repeat unit) |
| 234.00 °C | *c1ccc(Oc2cccc(NC(=O)c3ccc(C(=O)Nc4cccc(Oc5ccc(-c6nnc(*)o6)cc5)c4)c(Oc4ccccc4)c3)c2)cc1 (repeat unit) |
| 7.00 °C | *CCCCCCOC(=O)C(CCCCCBr)C(=O)OCCCCCCOc1ccc(-n2on2-c2ccc(O*)cc2)cc1 (repeat unit) |
| 142.00 °C | *CC(*)(C)C(=O)OCCS(=O)(=O)c1ccc(/N=N/c2ccc(N(CC)CC)cc2)cc1 (repeat unit) |
| 260.00 °C | *c1ccc(Oc2ccc(N3C(=O)c4ccc(Oc5ccc(S(=O)(=O)c6ccc(Oc7ccc8c(c7)C(=O)N(*)C8=O)cc6)cc5)cc4C3=O)cc2)cc1 (repeat unit) |
| 21.00 °C | *CC(COC(=O)O*)OCCCCCCCCCCCOc1ccc(/C=C/c2ccc([N+](=O)[O-])cc2)cc1 (repeat unit) |
| 197.00 °C | *c1ccc(Oc2ccc(Oc3ccc(N4C(=O)c5ccc(Oc6ccccc6Oc6ccc7c(c6)C(=O)N(*)C7=O)cc5C4=O)cc3C(F)(F)F)cc2)c(C(F)(F)F)c1 (repeat unit) |
| 250.00 °C | *C(=O)Nc1ccc(C(c2ccc(NC(=O)c3ccc4c(c3)C(=O)N(c3c(C)cc(-c5cc(C)c(N6C(=O)c7ccc(*)cc7C6=O)c6ccccc56)c5ccccc35)C4=O)cc2)(C(F)(F)F)C(F)(F)F)cc1 (repeat unit) |
| 107.00 °C | *Oc1ccc(Sc2ccc(OC(=O)OC3C(C)(C)C(OC(*)=O)C3(C)C)cc2)cc1 (repeat unit) |
| 258.50 °C | *C(=O)c1cc(C(=O)c2ccc3c(c2)C(=O)N(c2ccc(Oc4ccc(N5C(=O)c6ccc(*)cc6C5=O)cc4)cc2)C3=O)cc(-c2ccccc2)c1 (repeat unit) |
| 30.00 °C | *OC(=O)c1cccc(OCCCCCCCCCCOc2cccc(C(=O)OC3COC4C(*)COC34)c2)c1 (repeat unit) |
| 100.00 °C | *CCN(*)C(=O)c1ccc(SC(F)(F)F)cc1 (repeat unit) |
| 117.00 °C | *CC(*)c1ccc(COc2ccc(-c3ccc(-c4ccc(C)cc4)c4nsnc34)cc2)cc1 (repeat unit) |
| 267.00 °C | *c1ccc(Oc2ccc(-c3nc4ccc(Oc5ccc(N6C(=O)c7ccc(C(c8ccc9c(c8)C(=O)N(c8ccc(Oc%10ccc%11nc(*)c(-c%12ccccc%12)nc%11c%10)cc8)C9=O)(C(F)(F)F)C(F)(F)F)cc7C6=O)cc5)cc4nc3-c3ccccc3)cc2)cc1 (repeat unit) |
| 228.50 °C | *Oc1c(Br)cc(C(C)(C)c2cc(Br)c(OC(*)=O)c(Br)c2)cc1Br (repeat unit) |
| 258.00 °C | *c1ccc(NC2CC(=O)N(c3ccc(Cc4ccc(N5C(=O)CC(Nc6ccc(-c7nc(-c8ccc(/N=N/c9ccc([N+](=O)[O-])cc9)cc8)[nH]c7*)cc6)C5=O)cc4)cc3)C2=O)cc1 (repeat unit) |
| 150.50 °C | *Oc1ccc(Oc2ccc(Oc3ccc(C(=O)c4ccc(*)cc4)cc3)cc2)cc1 (repeat unit) |
| 196.00 °C | *c1cc(Br)c(-c2c(Br)cc(N3C(=O)c4ccc(-c5ccc6c(c5)C(=O)N(*)C6=O)cc4C3=O)cc2C(=O)OCCCC)c(C(=O)OCCCC)c1 (repeat unit) |

| Compound | glass transition temperature |
| --- | --- |
| *CCO* (repeat unit) [Poly(ethylene glycol)] | -15.6 ± 42 °C |
| *OP(=O)(Oc1ccc(C(C)(C)c2ccc(*)cc2)cc1)Oc1c(Cl)cc(Cl)cc1Cl (repeat unit) | 94.00 °C |
| *NC(CCC(=O)OC)C(*)=O (repeat unit) | 0.00 °C |
| *c1cccc(P(=O)(c2ccccc2)c2cccc(-n3c(=O)c4cc5c(=O)n(*)c(=O)c5c(-c5ccccc5)c4c3=O)c2)c1 (repeat unit) | 325.00 °C |
| *CCN(*)C(=O)CC(C)C (repeat unit) | 30.00 °C |
| *CC(*)Cl (repeat unit) [Poly(vinyl chloride)] | 78.42 ± 2.2 °C |
| *CCCCCOC(=O)O* (repeat unit) | -42.9 °C |
| *CC(C)C(=O)O* (repeat unit) | -25.00 °C |
| *OC1CCCCC1* (repeat unit) | 68.50 °C |
| *CCC(C)O* (repeat unit) | -50.00 °C |
| *c1ccc(C(c2ccc(N3C(=O)c4ccc(OCCN(CCOc5ccc6c(c5)C(=O)N(*)C6=O)c5ccc(/C=C/c6ccc([N+](=O)[O-])cc6)cc5)cc4C3=O)cc2)(C(F)(F)F)C(F)(F)F)cc1 (repeat unit) | 180.70 °C |
| *CC(*)C(=O)[O][Na] (repeat unit) | 114.40 °C |
| *CC(COCCCC)O* (repeat unit) | -79.00 °C |
| */C=C/C(C)C* (repeat unit) | -35.00 °C |
